The text below walks through data of BindingDB's records for doi:10.7270/Q2B27SRF (Broad Institute, 2010).

A value given as a limit tells only on which side of the number the result lay.

This experiment deals with Serine/threonine-protein kinase 33 (Homo sapiens, UniProt Q9BYT3). Kind of experiment: inhibition of STK33 phosphorylation of MBP – biochemical, luminescence, cell-free, retest, dose response (AID 2821).
Chain of Serine/threonine-protein kinase 33 (Q9BYT3 whole entry): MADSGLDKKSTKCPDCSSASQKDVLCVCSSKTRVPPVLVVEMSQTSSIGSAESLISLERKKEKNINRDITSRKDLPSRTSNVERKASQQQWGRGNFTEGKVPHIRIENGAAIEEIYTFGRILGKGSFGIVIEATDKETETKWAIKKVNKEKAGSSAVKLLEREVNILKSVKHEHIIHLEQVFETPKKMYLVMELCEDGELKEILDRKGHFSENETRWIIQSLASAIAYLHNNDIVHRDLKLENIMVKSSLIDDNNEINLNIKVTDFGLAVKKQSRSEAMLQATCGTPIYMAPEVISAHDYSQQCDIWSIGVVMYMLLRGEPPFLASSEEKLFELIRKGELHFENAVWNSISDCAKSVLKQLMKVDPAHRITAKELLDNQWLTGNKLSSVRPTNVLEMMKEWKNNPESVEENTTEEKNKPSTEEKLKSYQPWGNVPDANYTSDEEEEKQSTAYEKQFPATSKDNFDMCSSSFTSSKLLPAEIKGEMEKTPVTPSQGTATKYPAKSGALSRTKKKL
For the compound `C=CC(=O)Nc1ccc(CN2C(=O)N(c3c(Cl)c(OC)cc(OC)c3Cl)Cc3cnc(NCCCCN(CC)CC)nc32)cc1` [N-[4-[[3-[2,6-bis(chloranyl)-3,5-dimethoxy-phenyl]-7-[4-(diethylamino)butylamino]-2-oxidanylidene-4H-pyrimido[4,5-d]pyrimidin-1-yl]methyl]phenyl]prop-2-enamide], it took 0.618 µM to reach a half-maximal effect (EC50). This counts as sub-micromolar.

For the compound `O=C(O)Cn1cc(C=c2sc3nc4ccccc4n3c2=O)c2ccccc21` [SMR000298358], it took 14.2 µM to reach a half-maximal effect (EC50).

Take `Oc1cc(O)cc(/C=C/c2ccc(O)c(O)c2)c1`: the midpoint of the response, the EC50, lay at 12.8 µM.

In the case of `CC(C)n1cnc2c(Nc3cccc(Cl)c3)nc(NCCCO)nc21`, a half-maximal effect (EC50) was put at 1.84 µM.

Regarding `COc1ccc(C(=O)ON=C(C)c2cccs2)cc1` [MLS000544771], a half-maximal effect (EC50) was put at 29.1 µM.

With `Cc1ncc(C=C2C(=O)Nc3ccccc32)[nH]1` [3-[(Z)-(2-methyl-1H-imidazol-4-yl)methylidene]-1H-indol-2-one], the 50% effective concentration (EC50) (commonly the concentration needed to bring the measured effect to its halfway point) is 3.42 µM. This EC50 lies about 8.5-fold lower than the previous one.

In turn, `CCCCCCCCCCCCCCCC[n+]1cccc2ccccc21` [1-cetylquinolin-1-ium;iodide] gave an EC50 greater than 120 µM.

As for `O=C(Nc1nccs1)c1ccc(N2CCOCC2)c([N+](=O)[O-])c1` [4-morpholin-4-yl-3-nitro-N-(1,3-thiazol-2-yl)benzamide], the midpoint of the response, the EC50, lay at 42.1 µM.

`NC(=O)c1sc2nc(-c3ccco3)ccc2c1N` [3-Amino-6-furan-2-yl-thieno[2,3-b]pyridine-2-carboxylic acid amide]: the EC50 came to 25.5 µM. Compared with the last compound, the EC50 is about 1.7-fold lower.

`O=C(Nc1ccccc1-c1ccccc1)c1ccc(Br)o1` [5-bromo-N-(2-phenylphenyl)furan-2-carboxamide] yielded an EC50 of 10.8 µM.

In the case of `Cc1ccc2c(c1)/C(=C/c1ccco1)C(=O)N2` [SMR000312107], the EC50 was found to be 38.9 µM.

Take `COc1cc(CN=Nc2ccc(C(F)(F)F)cn2)ccc1O` [(4E)-2-methoxy-4-[[[5-(trifluoromethyl)-2-pyridinyl]hydrazo]methylidene]-1-cyclohexa-2,5-dienone]: the EC50 stood at 19 µM.

On to `Cc1ccc(NC(=S)Nc2ccc3cn[nH]c3c2)c(C)c1`, for which the EC50 was greater than 120 µM.

Consider `CN1CCN(c2nc(-c3ccccc3O)nc3ccccc23)CC1` [SMR000539302], for which the concentration giving a half-maximal response (EC50) amounted to 42.8 µM.

`COC1(OC)N=C(N)C2(C#N)C(c3ccc4c(c3)OCO4)C12C#N` (stereo not given): the EC50 is greater than 120 µM.

On to `CCOc1cc(/C=C2\SC(N3CCCC(C)C3)=NC2=O)ccc1O` (stereo not given) [(5Z)-5-[(3-ethoxy-4-hydroxyphenyl)methylidene]-2-(3-methylpiperidin-1-yl)-1,3-thiazol-4-one], for which the half-maximal effective concentration (EC50) was greater than 120 µM.

`COc1cc(C)c2c(c1C=O)Oc1c(c(C)c(O)c3c1C(O)OC3=O)OC2=O` (stereo not given) [1,4-Dihydroxy-10-methoxy-5,8-dimethyl-3,7-dioxo-1,3-dihydro-7H-benzo[e]furo[3',4':3,4]benzo[b][1,4]dioxepine-11-carbaldehyde]: the EC50 stood at 32 µM.

Compound `CN(C)S(=O)(=O)c1cccc(NC(=S)Nc2ccc3cn[nH]c3c2)c1` [MLS001033726] had a concentration giving a half-maximal response (EC50) of 38.7 µM.

Compound `CCN(CC)c1ccc(/C=C2\C(=O)c3ccc(C(=O)O)cc3C2=O)cc1` [2-[1-(4-Diethylamino-phenyl)-meth-(E)-ylidene]-1,3-dioxo-indan-5-carboxylic acid] came in with an EC50 of 5.66 µM.

For the compound `O=C(c1ccc2c3n(nc2c1)-c1ccccc1CO3)N1CCOCC1` [5H-indazolo[2,3-a][3,1]benzoxazin-9-yl(4-morpholinyl)methanone], a half-maximal response (EC50) required 18.4 µM.

Compound `COc1cc(C=C2SC(Nc3ccccc3OC)=NC2=O)ccc1O` [5-(4-Hydroxy-3-methoxy-benzylidene)-2-(2-methoxy-phenylimino)-thiazolidin-4-one] registered an EC50 of 4 µM.

As for `COc1ccc(C(=O)ON=C(N)c2ccccc2)cc1`, the EC50 was greater than 120 µM.

In turn, `CCn1c2ccc(C(C)N=O)cc2c2cc(C(C)N=O)ccc21` (stereo not given) [N-[1-[9-ethyl-6-(C-methyl-N-oxidanyl-carbonimidoyl)carbazol-3-yl]ethylidene]hydroxylamine] gave an EC50 greater than 120 µM.

With `Cc1c(C(=O)OCC(=O)N2c3ccccc3CC2C)oc2ccccc12` (stereo not given) [3-methyl-2-benzofurancarboxylic acid [2-(2-methyl-2,3-dihydroindol-1-yl)-2-oxoethyl] ester], the EC50 is greater than 120 µM.

Consider `CNC(=O)c1cnc2ccc(S(=O)(=O)Nc3ccccc3F)cc2c1O`, for which the EC50 is greater than 120 µM.

On to `COc1ccccc1Nc1oc2cc(=O)ccc-2cc1C(N)=O` [2-(2-methoxyanilino)-7-oxo-1-benzopyran-3-carboxamide], for which the EC50 stood at 30.9 µM.

As for `O=C1C=CC(=CCc2ccnc3ccccc23)C=C1` [MLS000705243], the 50% effective concentration (EC50) worked out at 11.5 µM.

As for `O=S(=O)(O)c1cccc(N=Nc2c(O)ccc3ccccc23)c1` [SMR000273743], the concentration giving a half-maximal response (EC50) came out at 3.46 µM.

Regarding `CC(N=Nc1ccnc2cc(Cl)ccc12)c1ccc(O)cc1` (stereo not given) [4-[1-[(7-chloro-4-quinolinyl)hydrazo]ethylidene]-1-cyclohexa-2,5-dienone], a half-maximal response (EC50) required 22.9 µM.

`N#Cc1c2ccc(O)cc2n2ccccc12` [3-hydroxypyrido[1,2-a]indole-10-carbonitrile] yielded an EC50 of 4.59 µM.

Turning to `COc1ccc2c(c1)C(=Cc1cnc[nH]1)C(=O)N2`, the EC50 was 7.73 µM.

In turn, `COc1c(O)cc2oc(-c3ccc(O)c(O)c3)cc(=O)c2c1O` registered an EC50 of 11 µM. This EC50 and that of the compound before are within 1.5-fold of each other.

Compound `O=C1C=CC(O)(c2cc(=O)c3c(O)cc(O)cc3o2)C=C1` [SMR000156275] came in with a concentration giving a half-maximal response (EC50) greater than 120 µM.

As to `NC(=O)NN=Cc1c(O)ccc2oc3c(c12)CCCC3` [SMR000414386], a half-maximal effect (EC50) was put at 1.24 µM.

`COc1ccc(CNc2nc3ccccc3s2)cc1OC` [SMR000523783] yielded an EC50 greater than 120 µM.

Regarding `Oc1ccc(/N=C/c2c(O)ccc3ccccc23)cc1` [(1Z)-1-[(4-hydroxyanilino)methylidene]-2-naphthalenone], the response was half-maximal at 2.84 µM (EC50).

For `CC(Oc1ccc2c(c1)c1ccnc3c4ccccc4c(=O)n2c13)C(=O)NCCN1CCOCC1` (stereo not given) [SMR000652046], a half-maximal effect (EC50) was put at 0.416 µM. Against the preceding compound, the EC50 is about 6.8-fold lower.

In turn, `CN(C)C/C=C/C(=O)Nc1cccc(-c2c[nH]c3ncnc(Oc4ccc(NC(=O)CC(=O)Nc5ccc(F)cc5)cc4F)c23)c1` had a 50% effective concentration (EC50) of 6.32 µM. This EC50 is about 15-fold higher than that of the compound before.

The compound `NC(=S)c1cn(C2OC(CO)C(O)C2O)c2ncnc(N)c12` (stereo not given) [4-amino-7-[3,4-dihydroxy-5-(hydroxymethyl)oxolan-2-yl]pyrrolo[2,3-d]pyrimidine-5-carbothioamide] gave a 50% effective concentration (EC50) of 3.48 µM. This EC50 is about 1.8-fold lower than that of the compound before.

Turning to `O=C(Nc1cccc(-c2cn3cccnc3n2)c1)c1ccc(Br)o1` [5-bromanyl-N-(3-imidazo[1,2-a]pyrimidin-2-ylphenyl)furan-2-carboxamide], the EC50 worked out at 16 µM.

Compound `O=c1c2ccccc2sc2ccc(NCCCN3CCOCC3)cc12` had an EC50 of 16.8 µM.

`COc1cc(C=Nn2c(-c3ccccc3)n[nH]c2=S)ccc1O` [(4E)-2-methoxy-4-[[(3-phenyl-5-sulfanylidene-1H-1,2,4-triazol-4-yl)amino]methylidene]cyclohexa-2,5-dien-1-one]: a half-maximal response (EC50) required 7.09 µM.

On to `CC1CCN(C2=NC(=O)/C(=C/c3ccc(O)cc3)S2)CC1` [MLS001205076], for which the concentration giving a half-maximal response (EC50) turned out to be 10.4 µM.

In turn, `CCN(CC)c1ccc(Nc2nc(N3CCOCC3)c3ccccc3n2)cc1` [4-N,4-N-diethyl-1-N-(4-morpholin-4-ylquinazolin-2-yl)benzene-1,4-diamine] showed an EC50 greater than 120 µM.

For the compound `Nc1c(C(=O)O)ccc2c1C(=O)c1ccccc1C2=O`, the EC50 is 22.2 µM. This lies in the double-digit micromolar range.
